Experimental data: ChEMBL document CHEMBL5042524, “Discovery of Novel Histone Deacetylase 6 (HDAC6) Inhibitors with Enhanced Antitumor Immunity of Anti-PD-L1 Immunotherapy in Melanoma” (J Med Chem, 2022)

Legend:
B16-F10 [1] = experiment: Antitumour activity against mouse B16-F10 cells allografted in C57BL/6 mouse model assessed as decrease in PD-L1 expression level by Western blot analysis relative to control; type: functional; set-up: scale not given: the % may be the effect or the level left
[2] = MRT (0 to infinity) in Sprague-Dawley rat at 10 mg/kg, po measured upto 48 hrs by LC-MS/MS analysis; type: ADME, organism-based; conditions: in vivo
[3] = Toxicity in C57BL/6 mouse bearing B16-F10 tumor assessed as morphological changes in heart at 50 mg/kg, ip administered for 14 days by H and E staining based microscopic analysis; type: organism-based; conditions: in vivo, 336 h, time 14 day
Mus musculus = experiment: Myelosuppression in C57BL/6 mouse assessed as change in granulocyte count at 50 mg/kg, IG administered once daily via gavage for 14 days; type: toxicity, organism-based; conditions: in vivo, po, 336 h, time 14 day
[4] = Toxicity in C57BL/6 mouse bearing B16-F10 tumor assessed as morphological changes in liver at 50 mg/kg, ip administered for 14 days by H and E staining based microscopic analysis; type: organism-based; conditions: in vivo, 336 h, time 14 day
[5] = MRT (0 to infinity) in Sprague-Dawley rat at 2 mg/kg, iv measured upto 48 hrs by LC-MS/MS analysis; type: ADME, organism-based; conditions: in vivo
[6] = AUC(0 to t) in Sprague-Dawley rat at 2 mg/kg, iv measured upto 48 hrs by LC-MS/MS analysis; type: ADME, organism-based; set-up: route intravenous, dose 2 mg/kg, time <=48; conditions: in vivo
[7] = Oral bioavailability in Sprague-Dawley rat at 10 mg/kg measured upto 48 hrs by LC-MS/MS analysis; type: ADME, organism-based; conditions: in vivo
[8] = Toxicity in C57BL/6 mouse allografted with B16-F10 cells assessed as body weight loss at 50 mg/kg, ip administered daily for 14 days in combination with 2-(5-chloro-2-(3-cyanobenzyloxy)-4-((2-methylbiphenyl-3-yl)methoxy)benzylamino)-2-methylpropanoic acid; type: organism-based; conditions: in vivo, 336 h, time 14 day
[9] = Apparent volume of distribution in Sprague-Dawley rat at 10 mg/kg, po measured upto 48 hrs by LC-MS/MS analysis; type: ADME, organism-based; conditions: in vivo
[10] = Tmax in Sprague-Dawley rat at 10 mg/kg, po measured upto 48 hrs by LC-MS/MS analysis; type: ADME, organism-based; conditions: in vivo
[11] = Potency index, ratio of CAY10603 IC50 to test compound IC50 for antiproliferative activity against human YCC3/7 cells assessed as cell growth inhibition; type: functional
[12] = MRT(0 to t) in Sprague-Dawley rat at 2 mg/kg, iv measured upto 48 hrs by LC-MS/MS analysis; type: ADME, organism-based; conditions: in vivo
[13] = Tmax in Sprague-Dawley rat at 2 mg/kg, iv measured upto 48 hrs by LC-MS/MS analysis; type: ADME, organism-based; conditions: in vivo
[14] = Inhibition of pig brain tubulin polymerization by spectrophotometric analysis; set-up: species or system Sus scrofa
B16-F10 [15] = experiment: Antitumour activity against mouse B16-F10 cells allografted in C57BL/6 mouse model assessed as increase in CD3 positive/CD8 positive cells in tumor at 50 mg/kg, ip administered for 14 days by flow cytometry analysis (Rvb= 6.65%); type: functional; conditions: time 14 day
[16] = Clearance in Sprague-Dawley rat at 2 mg/kg, iv measured upto 48 hrs by LC-MS/MS analysis; type: ADME, organism-based; conditions: in vivo
[17] = Toxicity in C57BL/6 mouse bearing B16-F10 tumor assessed as morphological changes in kidney at 50 mg/kg, ip administered for 14 days by H and E staining based microscopic analysis; type: organism-based; conditions: in vivo, 336 h, time 14 day
[18] = Apparent volume of distribution in Sprague-Dawley rat at 2 mg/kg, iv measured upto 48 hrs by LC-MS/MS analysis; type: ADME, organism-based; conditions: in vivo
[19] = Resistance index, ratio of IC50 for antiproliferative activity against human YCC3/7 cells to IC50 for antiproliferative activity against human YCC-11 cells; type: functional
[20] = Half life in Sprague-Dawley rat at 10 mg/kg, po measured upto 48 hrs by LC-MS/MS analysis; type: ADME, organism-based; conditions: in vivo
[21] = Clearance in Sprague-Dawley rat at 10 mg/kg, po measured upto 48 hrs by LC-MS/MS analysis; type: ADME, organism-based; conditions: in vivo
[22] = AUC (0 to infinity) in Sprague-Dawley rat at 10 mg/kg, po measured upto 48 hrs by LC-MS/MS analysis; type: ADME, organism-based; set-up: route oral, dose 10 mg/kg, time <=48; conditions: in vivo
[23] = Cmax in Sprague-Dawley rat at 2 mg/kg, iv measured upto 48 hrs by LC-MS/MS analysis; type: ADME, organism-based; set-up: route intravenous, dose 2 mg/kg, time <=48; conditions: in vivo
[24] = AUC(0 to t) in Sprague-Dawley rat at 10 mg/kg, po measured upto 48 hrs by LC-MS/MS analysis; type: ADME, organism-based; set-up: route oral, dose 10 mg/kg, time <=48; conditions: in vivo

For `COc1ccc(-c2ncc(C(=O)NCCCCCCC(=O)NO)s2)c(OC)c1`, the Activity (B16-F10 [1]) was 20%, the MRT inf [2] was 8.5 h and the Activity [3] was “Non-Toxic”. For the same compound, the Activity (Mus musculus) was “Non-Toxic”, the Activity [4] was “Non-Toxic” and the MRT inf [5] was 1.6 h. The AUC(0-t) at 48 h [6] was 318 ng·h/mL, the bioavailability [7] was 8.7% and the Activity [8] was “Non-Toxic”. For the same compound, the Vz/F [9] was 1485.8 L/kg, the Tmax [10] was 5.3 h and the “Ratio IC50” value [11] was 12. For the same compound, the MRT last at 48 h [12] was 1.1 h, the Tmax [13] was 4.98 min and the IC50 [14] was over 100 µM. For the same compound, the Activity (B16-F10 [15]) was 6.81%, the clearance [16] was 105 mL/min/kg and the Activity [17] was “Non-Toxic”. For the same compound, the Vz/F [18] was 76.5 L/kg, the “Ratio IC50” value [19] was 1.2 and the half-life [20] was 5.8 h. It also gave a CL [21] of 2402 mL/min/kg, an AUC [22] of 138.6 ng·h/mL and a Cmax [23] of 875 ng/mL. For the same compound, the AUC(0-t) at 48 h [24] was 134 ng·h/mL.
